Test results as given in patent US20100056508A1, “AMINE DERIVATIVES AND THEIR USE IN BETA-2-ADRENORECEPTOR MEDIATED DISEASES” (ASTRAZENECA AB, priority 2006, published 2010).

Target: T1, recombinant human α1D receptor (Homo sapiens, UniProt P25100)
T1 construct: expressed in transfected cells; host or cells: human embryonic kidney 293 cells (HEK93 [sic]), membranes
T1 sequence (P25100 1-572): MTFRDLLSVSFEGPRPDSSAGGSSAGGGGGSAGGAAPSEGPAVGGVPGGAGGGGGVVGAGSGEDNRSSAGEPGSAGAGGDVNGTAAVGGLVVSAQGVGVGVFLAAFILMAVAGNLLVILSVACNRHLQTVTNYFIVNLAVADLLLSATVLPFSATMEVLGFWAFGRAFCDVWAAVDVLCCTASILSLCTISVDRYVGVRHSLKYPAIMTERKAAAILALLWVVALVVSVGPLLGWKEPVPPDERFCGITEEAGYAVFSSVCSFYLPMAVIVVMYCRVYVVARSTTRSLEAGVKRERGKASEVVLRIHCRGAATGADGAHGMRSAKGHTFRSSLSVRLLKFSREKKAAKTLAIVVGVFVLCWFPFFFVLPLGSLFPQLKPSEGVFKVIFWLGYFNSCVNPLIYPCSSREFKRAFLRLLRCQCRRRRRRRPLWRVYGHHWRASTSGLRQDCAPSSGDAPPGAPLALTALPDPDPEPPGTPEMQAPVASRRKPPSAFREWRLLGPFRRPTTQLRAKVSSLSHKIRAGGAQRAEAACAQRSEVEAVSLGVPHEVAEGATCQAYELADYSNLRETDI
Assay: Adrenergic α1D selectivity assay, [3H]-prazosin binding to membranes
Settings: inhibition of [3H]-prazosin binding, HEK cell membranes, read-out: α1 bind pIC50 (converted)
Procedure, shortened: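 Competition binding on HEK293 membranes with recombinant human α1D receptor, 0.3 nM [3H]-prazosin, 50 mM HEPES/1 mM EDTA pH 7.4, 2 h at room temperature; filtration and scintillation counting. Non-specific binding defined with 10 μM BMY7378. pIC50 from four-parameter logistic fit of specific-binding inhibition.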

SMILES	IC50 [nM]
O=C1COc2c(CCNCCN(C(=O)CCNCCc3cc(F)ccc3F)C3CCCCC3)ccc(O)c2N1 [Example 38, N-Cyclohexyl-3-(2,5-difluorophenethylamino)-N-(2-(2-(5-hydroxy-3-oxo-3,4-dihydro-2H-benzo[b][1,4]oxazin-8-yl)ethylamino)ethyl)propanamide bis(trifluoroacetate)]	158
CCCC[C@@H](C)N(CCNCCc1ccc(O)c2c1OCC(=O)N2)C(=O)CCNCCc1ccc(Cl)s1 [Example 49, (R)-3-(2-(5-Chlorothiophen-2-yl)ethylamino)-N-(hexan-2-yl)-N-(2-(2-(5-hydroxy-3-oxo-3,4-dihydro-2H-benzo[b][1,4]oxazin-8-yl)ethylamino)ethyl)propanamide bis(trifluoroacetate)]	316
O=C(CCNCCc1ccc(Cl)cc1)N(CCNCCc1ccc(O)c2[nH]c(=O)ccc12)C1CCCCC1 [Example 14, 3-(4-Chlorophenethylamino)-N-cyclohexyl-N-(2-(2-(8-hydroxy-2-oxo-1,2-dihydroquinolin-5-yl)ethylamino)ethyl)propanamide bis(trifluoroacetate)]	501
O=C1COc2c(CCNCCN(C(=O)CCNCCc3cccc(Cl)c3)C3CCCCCC3)ccc(O)c2N1 [Example 68, 3-(3-Chlorophenethylamino)-N-cycloheptyl-N-(2-(2-(5-hydroxy-3-oxo-3,4-dihydro-2H-benzo[b][1,4]oxazin-8-yl)ethylamino)ethyl)propanamide bis(trifluoroacetate)]	158
CCCC[C@@H](C)N(CCNCCc1ccc(O)c2c1OCC(=O)N2)C(=O)CCNCCc1cc(F)ccc1F [Example 54, (R)-3-(2,5-Difluorophenethylamino)-N-(hexan-2-yl)-N-(2-(2-(5-hydroxy-3-oxo-3,4-dihydro-2H-benzo[b][1,4]oxazin-8-yl)ethylamino)ethyl)propanamide bis(trifluoroacetate)]	79.4
O=C(CCOCCc1ccccc1)N(CCNCCc1ccc(O)c2[nH]c(=O)ccc12)C1CCCCC1 [Example 2, N-Cyclohexyl-N-(2-(2-(8-hydroxy-2-oxo-1,2-dihydroquinolin-5-yl)ethylamino)ethyl)-3-phenethoxypropanamide]	794
Cc1cc(CCNCCC(=O)N(CCNCCc2ccc(O)c3c2OCC(=O)N3)C2CCCCC2)ccc1F [Example 40, N-Cyclohexyl-3-(4-fluoro-3-methylphenethylamino)-N-(2-(2-(5-hydroxy-3-oxo-3,4-dihydro-2H-benzo[b][1,4]oxazin-8-yl)ethylamino)ethyl)propanamide bis(trifluoroacetate)]	31.6
CCCC[C@@H](C)N(CCNCCc1ccc(O)c2c1OCC(=O)N2)C(=O)CCNCCc1cc(C)ccc1F [Example 56, (R)-3-(2-Fluoro-5-methylphenethylamino)-N-(hexan-2-yl)-N-(2-(2-(5-hydroxy-3-oxo-3,4-dihydro-2H-benzo[b][1,4]oxazin-8-yl)ethylamino)ethyl)propanamide bis(trifluoroacetate)]	31.6
O=C1COc2c(CCNCCN(C(=O)CCNCCc3cc(F)cc(F)c3)C3CCCCCC3)ccc(O)c2N1 [Example 65, N-Cycloheptyl-3-(3,5-difluorophenethylamino)-N-(2-(2-(5-hydroxy-3-oxo-3,4-dihydro-2H-benzo[b][1,4]oxazin-8-yl)ethylamino)ethyl)propanamide bis(trifluoroacetate)]	398
O=C1COc2c(CCNCCN(C(=O)CCNCCc3ccc(Cl)cc3)C3CCCCCC3)ccc(O)c2N1 [Example 63, 3-(4-Chlorophenethylamino)-N-cycloheptyl-N-(2-(2-(5-hydroxy-3-oxo-3,4-dihydro-2H-benzo[b][1,4]oxazin-8-yl)ethylamino)ethyl)propanamide bis(trifluoroacetate)]	100
CCCC[C@@H](C)N(CCNCCc1ccc(O)c2c1OCC(=O)N2)C(=O)CCNCCc1cc(F)ccc1C [Example 57, (R)-3-(5-Fluoro-2-methylphenethylamino)-N-(hexan-2-yl)-N-(2-(2-(5-hydroxy-3-oxo-3,4-dihydro-2H-benzo[b][1,4]oxazin-8-yl)ethylamino)ethyl)propanamide bis(trifluoroacetate)]	100
O=C1COc2c(CCNCCN(C(=O)CCNCCc3cccc(F)c3)C3CCCCCC3)ccc(O)c2N1 [Example 69, N-Cycloheptyl-3-(3-fluorophenethylamino)-N-(2-(2-(5-hydroxy-3-oxo-3,4-dihydro-2H-benzo[b][1,4]oxazin-8-yl)ethylamino)ethyl)propanamide bis(trifluoroacetate)]	200
O=C1COc2c(CCNCCN(C(=O)CCNCCc3ccc(F)c(F)c3)C3CCCCC3)ccc(O)c2N1 [Example 42, N-Cyclohexyl-3-(3,4-difluorophenethylamino)-N-(2-(2-(5-hydroxy-3-oxo-3,4-dihydro-2H-benzo[b][1,4]oxazin-8-yl)ethylamino)ethyl)propanamide bis(trifluoroacetate)]	200
CCCC[C@@H](C)N(CCNCCc1ccc(O)c2c1OCC(=O)N2)C(=O)CCNCCc1ccccc1Cl [Example 46, (R)-3-(2-Chlorophenethylamino)-N-(hexan-2-yl)-N-(2-(2-(5-hydroxy-3-oxo-3,4-dihydro-2H-benzo[b][1,4]oxazin-8-yl)ethylamino)ethyl)propanamide bis(trifluoroacetate)]	79.4
Cc1cc(CCNCCC(=O)N(CCNCCc2ccc(O)c3c2OCC(=O)N3)C2CCCCCC2)ccc1F [Example 62, N-Cycloheptyl-3-(4-fluoro-3-methylphenethylamino)-N-(2-(2-(5-hydroxy-3-oxo-3,4-dihydro-2H-benzo[b][1,4]oxazin-8-yl)ethylamino)ethyl)propanamide bis(trifluoroacetate)]	39.8
